Here are results for eleven compounds from patent publication US8394796B2, “Bicyclic pyrimidine PI3K inhibitor compounds selective for P110 delta, and methods of use” (Genentech, Inc., priority 2009, dated 2013).

Read-outs that look alike come from different tables or passages of the source.

In assay [1] the target is T1, p110δ/p85α (PI3K p110 delta) (Homo sapiens, UniProt O00329).
T1 construct: purchased Upstate Group, Millipore; Dundee, UK
In words: PI3K isoform inhibition assay (fluorescence polarization PIP3 displacement; alternatively radiometric), p110 delta. Type of assay: biochemical. Particulars: for IC50: PI3K p110 delta binding IC50; for IC50 p110 alpha/IC50 p110 delta: delta/alpha selectivity: ratio of p110 alpha IC50 to p110 delta IC50. The method, then:
PI3K Isoform Inhibition Assay (p110 Alpha, Beta, Gamma, Delta: α, β, γ, δ)
PI3K enzymatic activity was assayed by measuring the amount of product phosphatidylinositol 3,4,5-phosphate (PIP3) formed from substrate 4,5 phosphatidylinositol 4,5-phosphate (PIP2) using a fluorescence polarization displacement assay. The decrease in fluorescence polarization of a fluorescent PIP3 probe is measured as it is displaced from a PIP3-binding protein GRP-1 detector by PI3K-catalyzed product. […] The kinase reactions were initiated by the addition of 40 ng/mL p110α/p85α, 300 ng/mL p110β/p85α, 40 ng/mL p110γ, or 40 ng/mL p110δ/p85α (Upstate Group, Millipore; Dundee, UK), and 10 μM PIP2 (Echelon Biosciences) to the wells. […] After 60 minutes of incubation at room temperature to allow equilibration of labeled and unlabeled PIP3 binding, the parallel and perpendicular components of the fluorescence emissions from each sample were measured at an excitation wavelength of 530 nm and an emission wavelength of 590 nm using an Envision fluorescent plate reader with a rhodamine filter (PerkinElmer Life and Analytical Sciences; Wellesley, Mass.). The assay is capable of detecting 0.1-2.0 μM PIP3 product. The IC50 values were obtained by fitting the dose-dependent inhibition data to a 4-parameter equation using Assay Explorer software (MDL, San Ramon, Calif.).
The Formula I compound was serially diluted in 100% DMSO. The kinase reaction was incubated for 1 h at room temperature, and the reaction was terminated by the addition of PBS. IC50 values were subsequently determined using sigmoidal dose-response curve fit (variable slope).
HT baculovirus expression system (GIBCO/BRL), and then purified for use in biochemical assays. The four Class I PI 3-kinases are cloned into baculovirus vectors as follows: […]

Assay [2] has as its system CD69 positive cells that are also CD20 positive, stimulated by anti-IgM, in human whole blood. In words: CD69 whole blood assay (human whole blood, anti-IgM stimulated). Type of assay: cell-based. Particulars: read-out: IC50 in the CD69 Whole Blood Assay. How it is done: Human blood is obtained from healthy volunteers, with the following restrictions: 1 week drug-free, non-smokers. Blood (approximately 20 mls to test 8 compounds) is collected by venipuncture into Vacutainer tubes with sodium heparin.
Solutions of Formula I compounds at 1000 or 2000 μM in PBS (20×), are diluted by three-fold serial dilutions in 10% DMSO in PBS for a nine point dose-response curve. An aliquot of 5.5 μl of each compound is added in duplicate to a 2 ml 96-well plate; 5.5 μl of 10% DMSO in PBS is added as control and no-stimulus wells. Human whole blood—HWB (100 μl) is added to each well. After mixing the plates are incubated at 37° C., 5% CO2, 100% humidity for 30 minutes. Goat F(ab′)2 anti-human IgM (10 μl of a […] solution, 50 μg/ml final) is added to each well (except the no-stimulus wells) with mixing and the plates are incubated for an additional 20 hours. At the end of the 20 hour incubation, samples are incubated with florescent labeled antibodies for 30 minutes, at 37° C., 5% CO2, 100% humidity. Include induced control, unstained and single stains for compensation adjustments and initial voltage settings. Samples are then lysed with Pharmingen Lyse according to the manufacturer's instructions. Samples are then transferred to a 96 well plate suitable to be run on the AMS 96 well system on the BD Calibur FACs machine. Data acquired and Mean Fluorescence Intensity values were obtained using Cell Quest Software. Results are initially analyzed by FACS analysis software (Flow Jo). […] The IC50 values are calculated by Activityl)ase using Xlfit version 3, equation 201.

Where [3] appears, read: concentration decreasing by 50% the percent CD69 positive of CD20 positive cells stimulated by anti-IgM, 20 hours.

T1 sequence (O00329 whole entry): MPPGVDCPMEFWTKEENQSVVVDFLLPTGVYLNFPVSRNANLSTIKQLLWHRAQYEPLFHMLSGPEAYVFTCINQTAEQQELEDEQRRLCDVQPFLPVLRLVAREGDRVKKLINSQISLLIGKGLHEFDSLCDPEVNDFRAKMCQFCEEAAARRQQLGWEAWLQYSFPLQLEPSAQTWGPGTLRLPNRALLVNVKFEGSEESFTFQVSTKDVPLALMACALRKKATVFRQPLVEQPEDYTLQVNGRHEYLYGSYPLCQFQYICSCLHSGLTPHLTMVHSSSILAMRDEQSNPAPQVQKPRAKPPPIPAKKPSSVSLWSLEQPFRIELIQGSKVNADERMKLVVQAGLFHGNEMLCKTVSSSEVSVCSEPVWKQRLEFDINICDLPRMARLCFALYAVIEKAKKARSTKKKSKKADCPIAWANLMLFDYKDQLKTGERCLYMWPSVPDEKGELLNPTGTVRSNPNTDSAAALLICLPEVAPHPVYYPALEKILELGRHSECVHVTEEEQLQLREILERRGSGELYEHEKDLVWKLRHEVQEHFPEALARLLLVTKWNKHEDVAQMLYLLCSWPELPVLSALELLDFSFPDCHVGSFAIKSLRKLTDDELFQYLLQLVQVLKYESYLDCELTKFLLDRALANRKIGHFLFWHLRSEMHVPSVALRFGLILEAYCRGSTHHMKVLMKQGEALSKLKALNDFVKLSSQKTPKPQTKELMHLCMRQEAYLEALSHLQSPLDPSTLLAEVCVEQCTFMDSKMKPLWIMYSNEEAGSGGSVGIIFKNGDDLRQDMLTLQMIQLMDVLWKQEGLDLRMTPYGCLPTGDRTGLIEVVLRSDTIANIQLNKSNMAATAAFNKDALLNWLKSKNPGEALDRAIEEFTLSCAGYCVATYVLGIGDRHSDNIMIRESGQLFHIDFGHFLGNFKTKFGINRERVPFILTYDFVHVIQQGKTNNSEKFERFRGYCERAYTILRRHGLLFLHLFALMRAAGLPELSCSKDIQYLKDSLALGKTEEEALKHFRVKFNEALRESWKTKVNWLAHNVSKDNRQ
T1 sequence (P27986 whole entry partner): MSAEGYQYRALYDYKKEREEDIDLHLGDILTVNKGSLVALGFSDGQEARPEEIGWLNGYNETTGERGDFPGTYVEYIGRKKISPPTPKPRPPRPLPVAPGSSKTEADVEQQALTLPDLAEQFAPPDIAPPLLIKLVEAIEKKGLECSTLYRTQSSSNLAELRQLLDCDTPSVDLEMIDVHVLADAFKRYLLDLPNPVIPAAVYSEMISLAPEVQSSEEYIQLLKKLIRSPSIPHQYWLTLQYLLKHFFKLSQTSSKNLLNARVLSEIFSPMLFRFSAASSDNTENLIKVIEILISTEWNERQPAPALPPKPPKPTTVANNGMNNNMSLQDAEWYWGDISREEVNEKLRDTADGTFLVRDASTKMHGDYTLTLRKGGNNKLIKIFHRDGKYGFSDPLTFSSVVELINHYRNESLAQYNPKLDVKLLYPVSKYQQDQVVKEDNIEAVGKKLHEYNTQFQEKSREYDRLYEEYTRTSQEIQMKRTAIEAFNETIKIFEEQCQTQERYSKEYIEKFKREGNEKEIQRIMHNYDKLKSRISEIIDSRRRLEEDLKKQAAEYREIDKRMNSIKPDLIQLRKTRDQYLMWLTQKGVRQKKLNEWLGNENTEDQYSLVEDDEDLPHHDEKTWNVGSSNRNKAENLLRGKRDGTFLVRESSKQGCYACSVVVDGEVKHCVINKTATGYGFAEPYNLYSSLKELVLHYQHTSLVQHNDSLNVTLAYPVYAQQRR

As usually defined, the IC50 is the midpoint of a concentration-inhibition curve. For the compound `Cc1nc2ccccc2n1-c1nc(N2CCOCC2)c2oc(CN3CCN(C(C)(C)C(N)=O)CC3)cc2n1` [Example 240, 2-methyl-2-(4-((2-(2-methyl-1H-benzo[d]imidazol-1-yl)-4-morpholinofuro[3,2-d]pyrimidin-6-yl)methyl)piperazin-1-yl)propanamide], in assay [1], the IC50 was determined as 2.74 nM and the “IC50 p110 alpha/IC50 p110 delta” value stood at 64. Besides, the IC50 in assay [2] (setting [3]) came to 17.8 nM.
As to `CCc1nc2ccccc2n1-c1nc(N2CCOCC2)c2nc(CN3CCC(C4COC4)CC3)n(C)c2n1` [Example 314, 4-(2-(2-ethyl-1H-benzo[d]imidazol-1-yl)-9-methyl-8-((4-(oxetan-3-yl)piperidin-1-yl)methyl)-9H-purin-6-yl)morpholine], the IC50 in assay [2] (setting [3]) turned out to be 44.1 nM.
Turning to `CCc1nc2ccccc2n1-c1nc(N2CCOCC2)c2nc(CN3CC([C@@H](O)C(C)C)C3)n(C)c2n1` [Example 388, (S)-1-(1-((2-(2-ethyl-1H-benzo[d]imidazol-1-yl)-9-methyl-6-morpholino-9H-purin-8-yl)methyl)azetidin-3-yl)-2-methylpropan-1-ol], the IC50 in assay [2] (setting [3]) came to 51.1 nM.
Consider `Cn1c(CN2CCN(C(C)(C)C)CC2)nc2c(N3CCOCC3)nc(-n3c(C4CC4)nc4ccccc43)nc21` [Example 403, 4-(8-((4-tert-butylpiperazin-1-yl)methyl)-2-(2-cyclopropyl-1H-benzo[d]imidazol-1-yl)-9-methyl-9H-purin-6-yl)morpholine], for which the IC50 in assay [2] (setting [3]) is 22 nM.
Still for that read-out and setting: in the case of `Cc1nc2ccccc2n1-c1nc(N2CCOCC2)c2nc(CN3CCN(C(C)(C)C(N)=O)CC3)n(C)c2n1` [Example 406, 2-methyl-2-(4-((9-methyl-2-(2-methyl-1H-benzo[d]imidazol-1-yl)-6-morpholino-9H-purin-8-yl)methyl)piperazin-1-yl)propanamide] it was 20.6 nM; in that of `Cn1c(CN2CCN(C(C)(C)CO)CC2)nc2c(N3CCOCC3)nc(-n3c(CCO)nc4ccccc43)nc21` [Example 427, 2-(4-((2-(2-(2-hydroxyethyl)-1H-benzo[d]imidazol-1-yl)-9-methyl-6-morpholino-9H-purin-8-yl)methyl)piperazin-1-yl)-2-methylpropan-1-ol], 56.7 nM; in that of `CNc1nc2ccccc2n1-c1nc(N2CCOCC2)c2nc(CN3CCN(C(C)(C)C)CC3)n(C)c2n1` [Example 428, 1-(8-((4-tert-butylpiperazin-1-yl)methyl)-9-methyl-6-morpholino-9H-purin-2-yl)-N-methyl-1H-benzo[d]imidazol-2-amine], 34.2 nM.
For the compound `Cn1c(CN2CCN(C(C)(C)C(N)=O)CC2)nc2c(N3CCOCC3)nc(-n3c(C4CC4)nc4ccccc43)nc21` [Example 438, 2-(4-((2-(2-cyclopropyl-1H-benzo[d]imidazol-1-yl)-9-methyl-6-morpholino-9H-purin-8-yl)methyl)piperazin-1-yl)-2-methylpropanamide], in assay [2] (setting [3]), the IC50 came out at 65.9 nM.
`CC(C)c1nc2ccccc2n1-c1nc(N2CCOCC2)c2nc(CN3CCN(C(C)(C)CO)CC3)[nH]c2n1` [Example 490, 2-(4-((2-(2-isopropyl-1H-benzo[d]imidazol-1-yl)-6-morpholino-9H-purin-8-yl)methyl)piperazin-1-yl)-2-methylpropan-1-ol]: the IC50 was 2.38 nM in assay [1] and 38.3 nM in assay [2] (setting [3]). For the same compound, in assay [1], the “IC50 p110 alpha/IC50 p110 delta” value is on record as 111.
`CN(C)C1CCN(Cc2cc3nc(-c4ccc(O)c5nccn45)nc(N4CCOCC4)c3s2)CC1` [Example 689, 5-(6-((4-(dimethylamino)piperidin-1-yl)methyl)-4-morpholinothieno[3,2-d]pyrimidin-2-yl)imidazo[1,2-a]pyridin-8-ol]: in assay [1], the IC50 is 25.8 nM and the “IC50 p110 alpha/IC50 p110 delta” value was determined as 23. Also, the IC50 in assay [2] (20 h) turned out to be 29 nM.
Regarding `Cc1nc2ccccc2n1-c1nc(N2CCOCC2)c2nc(CN3CCC(C(C)(C)O)CC3)[nH]c2n1` [Example 702, 2-(1-((2-(2-methyl-1H-benzo[d]imidazol-1-yl)-6-morpholino-9H-purin-8-yl)methyl)piperidin-4-yl)propan-2-ol], the IC50 in assay [2] (setting [3]) came out at 28.6 nM.
